{"source": "patent US20030053995A1", "about": "(priority 2001, published 2003)", "key": {"[1]": {"conditions": "cited from earlier work"}, "[2]": {"conditions": "cited from earlier work; for binding to plasma proteins: result in words; for half-life of disappearance from plasma: after intravenous injection, after distribution; for dose excreted/detected intact in the urine: in vivo"}, "[3]": {"tested_on": "ATRS (AT-rich consensus sequence) luciferase reporter with TK minimal promoter", "experiment": "EGF activation of ATRS luciferase reporter", "assay_type": "cell-based", "description": "(FIG. 6A) A431, (FIG. 6B) MDA-MB-468, (FIG. 6C) HBL 100, and (FIG. 6D) CHO cells.\nNext, four repeats of either the ATRS sites or the mutated sites were constructed in a luciferase reporter construct containing the mouse thymidine kinase gene (TK) minimal promoter. […] EGFR-dependent activation, however, could be restored in these two cell lines upon the cotransfection of the EGFR expression vector. Thus, the ATRS, which can bind to nuclear EGFR complex, responds to EGFR-dependent activation, whereas the mutant ATRS, which fails to bind to nuclear EGFR, loses it ability to respond to the EGFR-dependent activation.\nPlasmids and transfection. The cytoplasmic domain (645-1186), tyrosine kinase domain (645-1011), and C-terminal proline rich region (1011-1086) of human EGFR were amplified by PCR and subcloned in frame into pSG424 to generate for each domain a fusion protein containing GAL4 DNA binding proteins. The fusion protein constructs were then transfected into a variety of cell lines along with GAL4CAT or GAL4Luc reporter plasmids via liposomal DC-Cole provide by Dr. Leaf Huang at University of Pittsburgh."}, "[4]": {"tested_on": "Cyclin D1 promoter (Cyclin D1-luc) in MDA-MB-468 cells", "experiment": "EGF activation of Cyclin D1 promoter luciferase reporter", "assay_type": "cell-based", "conditions": "EGF 100 ng/ml", "description": "In FIG. 7A, MDA-MB-468 cells were transfected with a luciferase vector containing the cyclin D1 promoter with two intact ATRS or the same promoter with the ATRS mutated. […] After precipitation with the EGFR antibodies (1 Santa Cruz, 2 NeoMarkers) or normal rabbit IgG, cyclin D1 promoter region was amplified by PCR. Input nuclear DNA (In) or water (dw) were used as PCR controls.\nTargets for nuclear EGFR were identified. Since nuclear EGFR correlated with highly proliferative activity of cells, it was suspected that its target genes were likely involved in cell proliferation. One of the candidates, Cyclin D1, is a cell-cycle regulator essential for G1 phase progression. […] Two ATRS sequences are located in the proximal region of Cyclin D1 promoter between nucleotide −74 to −70 (TTTAT; SEQ ID NO:3) and −31 to −27 (TTTGT; SEQ ID NO:4), respectively. To test whether these two ATRS in Cyclin D1 promoter were responsive to EGFR activity, the reporter gene containing 163 bp of the Cyclin Dl promoter (Cyclin D1-luc) was tested. Many known transcription factor-binding sites had been eliminated from this construct but it still contained two ATRS described above."}, "[5]": {"conditions": "EGFR-overexpressing cell lines A431 and MDA-MB-468, EGF 100 ng/ml"}}, "note": "Read-outs that look alike come from different tables or passages of the source. Starred links: 1 amine or outer side, 2 acyl side, 3 side chain; linkers in the order of their positions; H or OH if unused. Positions of bridges follow the written chain, without caps; N, C: chain ends. Non-standard residues stand in square brackets, D forms with d. Residues, ends and D or L forms follow the SMILES beside them. Chains are numbered I, II in the order given. Actinocin(9to1) = Cc1c2oc3c(C)ccc(C(=O)[*:1])c3nc-2c(C(=O)[*:2])c(N)c1=O; NMeV = CN[C@H](C(=O)O)C(C)C; Sar = CNCC(=O)O"}
{"molecule": "O=NN(CCCl)C(=O)NCCCl", "note": "[Carmustine, 1,3bis (2-chloroethyl)-1-nitrosourea]", "values": [{"measurement": "solubility in organic solvents / alcohol and lipids", "setting": "[1]; result in words", "value": "highly soluble in alcohol and lipids"}]}
{"molecule": "CC[C@]1(O)C[C@H]2CN(CCc3c([nH]c4ccccc34)[C@@](C(=O)OC)(c3cc4c(cc3OC)N(C=O)[C@H]3[C@@](O)(C(=O)OC)[C@H](OC(C)=O)[C@]5(CC)C=CCN6CC[C@]43[C@@H]65)C2)C1", "note": "[Vincristine]", "values": [{"measurement": "binding to plasma proteins", "setting": "[2]", "value": "bind to plasma proteins"}]}
{"molecule": "CC[C@]1(O)C[C@@H]2CN(CCc3c([nH]c4ccccc34)[C@@](C(=O)OC)(c3cc4c(cc3OC)N(C)[C@H]3[C@@](O)(C(=O)OC)[C@H](OC(C)=O)[C@]5(CC)C=CCN6CC[C@]43[C@@H]65)C2)C1", "note": "[Vinblastine]", "values": [{"measurement": "half-life of disappearance from plasma", "setting": "[2]; first of two half-lives", "value": "approximately 1 hours"}, {"measurement": "half-life of disappearance from plasma", "setting": "[2]; second of two half-lives", "value": "~20", "unit": "h"}, {"measurement": "dose excreted/detected intact in the urine", "setting": "[2]", "value": "Approximately 15%"}, {"measurement": "binding to plasma proteins", "setting": "[2]", "value": "bind to plasma proteins"}]}
{"molecule": "EGF: epidermal growth factor, ligand for EGFR", "values": [{"measurement": "activation of mutant ATRS reporter construct", "setting": "[3]; [5]", "value": "only weakly activate"}, {"measurement": "activation of wild-type ATRS reporter construct", "setting": "[3]; [5]", "value": "strongly activate"}, {"measurement": "activation of wild type or mutant ATRS reporter", "setting": "[3]; cells with low (HBL100) or no EGFR (CHO), EGF 100 ng/ml", "value": "neither wild type nor the mutant reporter could be activated"}, {"measurement": "activation of Cyclin D1-luc(m) reporter with both ATRS mutated", "setting": "[4]", "value": "abolished"}, {"measurement": "activation of wild-type Cyclin D1-luc reporter", "setting": "[4]", "value": "up to four fold"}]}
{"molecule": "Cc1c2oc3c(C)ccc(C(=O)N[C@@H]4C(=O)N[C@H](C(C)C)C(=O)N5CCC[C@H]5C(=O)N(C)CC(=O)N(C)[C@@H](C(C)C)C(=O)O[C@@H]4C)c3nc-2c(C(=O)N[C@@H]2C(=O)N[C@H](C(C)C)C(=O)N3CCC[C@H]3C(=O)N(C)CC(=O)N(C)[C@@H](C(C)C)C(=O)O[C@@H]2C)c(N)c1=O", "note": "[Actinomycin D] (I: T[dV]P[Sar][NMeV] / II: T[dV]P[Sar][NMeV]; ester I:1-I:C, II:1-II:C; linker I:N-II:N via Actinocin(9to1))", "values": [{"measurement": "dose excreted/detected intact in the urine", "setting": "[2]", "value": 10, "unit": "%"}]}
{"molecule": "O=NN(CCCl)C(=O)NC1CCCCC1", "note": "[Lomustine, 1-(2-chloro-ethyl)-3-cyclohexyl-1 nitrosourea]", "values": [{"measurement": "tissue levels relative to plasma levels", "setting": "[2]; 15 minutes after intravenous administration", "value": "comparable to plasma levels"}, {"measurement": "solubility", "setting": "[1]; 10% ethanol", "value": 0.05, "unit": "mg per mL"}, {"measurement": "solubility", "setting": "[1]; absolute alcohol", "value": 70, "unit": "mg per mL"}, {"measurement": "solubility", "setting": "[1]; water", "value": "< 0.05", "unit": "mg per mL"}]}
